From the NIST ThermoML archive (doi:10.1016/j.jct.2015.07.042) come the findings set out here.

Molecules are shown by their SMILES. Numbers after ± are expanded uncertainties.

The nature of this data set: activity coefficient (dimensionless); of the first substance listed, at infinite dilution; xn = mol fraction of the nth substance listed. To be noted: 101 kPa, Liquid, Chromatography, x1 = 0.

For the compound `C#CCCCC` [1-hexyne] + CCCCn1cc[n+](C)c1.COP(=O)([O-])OC, the activity coefficient came to 3.01 ± 0.2 (358.15 K), 3.22 ± 0.22 (368.15 K), 3.39 ± 0.23 (378.15 K) and 3.57 ± 0.24 (388.15 K).

On to `C#CCCCC` [1-hexyne] + CCCCn1cc[n+](C)c1.CS(=O)(=O)[O-], for which the activity coefficient turned out to be 8.02 ± 0.55 (358.15 K), 8.52 ± 0.58 (368.15 K), 9.06 ± 0.62 (378.15 K) and 9.64 ± 0.66 (388.15 K).

For the compound `C=CCCCCCC` [oct-1-ene] + CCCCn1cc[n+](C)c1.[Cl-], the activity coefficient runs as follows: (358.15 K) 142 ± 9.7; (368.15 K) 134 ± 9.2; (378.15 K) 126 ± 8.6; (388.15 K) 122 ± 8.4.

With `C=CCCCCCCCC` [1-decene] + CCCCn1cc[n+](C)c1.COP(=O)([O-])OC, the activity coefficient by setting is: (358.15 K) 53.5 ± 3.7; (368.15 K) 52.2 ± 3.6; (378.15 K) 50.4 ± 3.5; (388.15 K) 49.2 ± 3.4.

As for `C=CCCCC` [hex-1-ene] + CCCCn1cc[n+](C)c1.[Cl-], the activity coefficient is 61.7 ± 4.2 (358.15 K), 57.9 ± 4 (368.15 K), 53.9 ± 3.7 (378.15 K) and 52 ± 3.6 (388.15 K).

Regarding `CCc1ccccc1` [ethylbenzene] + CCCCn1cc[n+](C)c1.[Cl-], the activity coefficient (358.15 K) came to 13.2 ± 0.9, the activity coefficient (368.15 K) was determined as 13.2 ± 0.9, the activity coefficient (378.15 K) is 13.5 ± 0.92 and the activity coefficient (388.15 K) came to 13.7 ± 0.94.

As to `C1CCCCCCC1` [cyclooctane] + CCCCn1cc[n+](C)c1.[Cl-], the activity coefficient (358.15 K) is 79.5 ± 5.5, the activity coefficient (368.15 K) worked out at 75.4 ± 5.2, the activity coefficient (378.15 K) amounted to 71.1 ± 4.9 and the activity coefficient (388.15 K) turned out to be 68.6 ± 4.7.

Turning to `CC1CCCCC1` [methylcyclohexane] + CCCCn1cc[n+](C)c1.[Cl-], the activity coefficient was determined as 84.2 ± 5.8 (358.15 K), 79 ± 5.4 (368.15 K), 73 ± 5 (378.15 K) and 69.8 ± 4.8 (388.15 K).

For the compound `CC(C)OC(C)C` [diisopropyl ether] + CCCCn1cc[n+](C)c1.CS(=O)(=O)[O-], the activity coefficient was found to be 40.6 ± 2.8 (358.15 K), 40.8 ± 2.8 (378.15 K) and 41.2 ± 2.8 (388.15 K).

For the compound `CCCC=O` [butanal] + CCCCn1cc[n+](C)c1.CS(=O)(=O)[O-], the activity coefficient runs as follows: (358.15 K) 3.33 ± 0.23; (368.15 K) 3.44 ± 0.23; (378.15 K) 3.58 ± 0.24; (388.15 K) 3.74 ± 0.25.

Consider `O` [water] + CCCCn1cc[n+](C)c1.COP(=O)([O-])OC, for which the activity coefficient (398.15 K) is 0.073 ± 0.03, the activity coefficient (408.15 K) turned out to be 0.081 ± 0.03, the activity coefficient (418.15 K) came to 0.092 ± 0.03 and the activity coefficient (428.15 K) worked out at 0.101 ± 0.03.

For `CC(C)CO` [2-methyl-1-propanol] + CCCCn1cc[n+](C)c1.CS(=O)(=O)[O-], the activity coefficient by setting is: (398.15 K) 0.893 ± 0.057; (408.15 K) 0.938 ± 0.059; (418.15 K) 0.991 ± 0.062; (428.15 K) 1.04 ± 0.066.

As for `C1CCCC1` [cyclopentane] + CCCCn1cc[n+](C)c1.CS(=O)(=O)[O-], the activity coefficient reads like this: (358.15 K) 23.9 ± 1.6; (368.15 K) 23.7 ± 1.6; (378.15 K) 23.5 ± 1.6; (388.15 K) 23.3 ± 1.6.

On to `C1CCCCCC1` [cycloheptane] + CCCCn1cc[n+](C)c1.COP(=O)([O-])OC, for which the activity coefficient runs as follows: (358.15 K) 15.1 ± 1; (368.15 K) 14.6 ± 1; (378.15 K) 14.3 ± 0.97; (388.15 K) 14 ± 0.96.

On to `c1ccccc1` [benzene] + CCCCn1cc[n+](C)c1.CS(=O)(=O)[O-], for which the activity coefficient was determined as 3.08 ± 0.21 (358.15 K), 3.19 ± 0.22 (368.15 K), 3.29 ± 0.22 (378.15 K) and 3.46 ± 0.24 (388.15 K).

As to `CCOC(C)(C)C` [2-ethoxy-2-methylpropane] + CCCCn1cc[n+](C)c1.CS(=O)(=O)[O-], the activity coefficient (358.15 K) was 35.3 ± 2.4, the activity coefficient (368.15 K) was 35.6 ± 2.4, the activity coefficient (378.15 K) stood at 36.1 ± 2.5 and the activity coefficient (388.15 K) came to 36.6 ± 2.5.

`CCOCC` [diethyl ether] + CCCCn1cc[n+](C)c1.COP(=O)([O-])OC: the activity coefficient (358.15 K) is 6.21 ± 0.42, the activity coefficient (368.15 K) was 6.3 ± 0.43, the activity coefficient (378.15 K) turned out to be 6.39 ± 0.44 and the activity coefficient (388.15 K) was 6.48 ± 0.44.

With `CCCCCCCC` [octane] + CCCCn1cc[n+](C)c1.CS(=O)(=O)[O-], the activity coefficient runs as follows: (358.15 K) 171 ± 12; (368.15 K) 165 ± 11; (378.15 K) 160 ± 11; (388.15 K) 155 ± 11.

Consider `CCO` [ethanol] + CCCCn1cc[n+](C)c1.CS(=O)(=O)[O-], for which the activity coefficient reads like this: (398.15 K) 0.533 ± 0.039; (408.15 K) 0.553 ± 0.04; (418.15 K) 0.576 ± 0.041; (428.15 K) 0.599 ± 0.042.

In the case of `CC(C)=O` [acetone] + CCCCn1cc[n+](C)c1.CS(=O)(=O)[O-], the activity coefficient amounted to 2.06 ± 0.14 (358.15 K), 2.12 ± 0.14 (368.15 K), 2.22 ± 0.15 (378.15 K) and 2.3 ± 0.16 (388.15 K).

For `CCCCCCCCCC` [decane] + CCCCn1cc[n+](C)c1.[Cl-], the activity coefficient stood at 704 ± 48 (358.15 K), 638 ± 44 (368.15 K), 580 ± 40 (378.15 K) and 560 ± 39 (388.15 K).

Take `c1ccsc1` [thiophene] + CCCCn1cc[n+](C)c1.[Cl-]: the activity coefficient (358.15 K) came to 2.04 ± 0.14, the activity coefficient (368.15 K) was found to be 2.16 ± 0.15, the activity coefficient (378.15 K) came out at 2.27 ± 0.15 and the activity coefficient (388.15 K) is 2.41 ± 0.16.

On to `C#CCCCCCC` [1-octyne] + CCCCn1cc[n+](C)c1.CS(=O)(=O)[O-], for which the activity coefficient reads like this: (358.15 K) 17.8 ± 1.2; (368.15 K) 18.6 ± 1.3; (378.15 K) 19.5 ± 1.3; (388.15 K) 20.4 ± 1.4.

For the compound `CCC(=O)OC` [methyl propanoate] + CCCCn1cc[n+](C)c1.COP(=O)([O-])OC, the activity coefficient runs as follows: (358.15 K) 3.56 ± 0.24; (368.15 K) 3.65 ± 0.25; (378.15 K) 3.76 ± 0.26; (388.15 K) 3.93 ± 0.27.

Turning to `CCCC(=O)OC` [methyl butanoate] + CCCCn1cc[n+](C)c1.CS(=O)(=O)[O-], the activity coefficient (358.15 K) was determined as 6.79 ± 0.46, the activity coefficient (368.15 K) was 7.21 ± 0.49, the activity coefficient (378.15 K) worked out at 7.39 ± 0.5 and the activity coefficient (388.15 K) was 7.84 ± 0.53.

Regarding `Cc1ccc(C)cc1` [1,4-dimethylbenzene] + CCCCn1cc[n+](C)c1.[Cl-], the activity coefficient came out at 13.6 ± 0.93 (358.15 K), 13.7 ± 0.94 (368.15 K), 14 ± 0.96 (378.15 K) and 14.3 ± 0.98 (388.15 K).

Take `CCCC(=O)OC` [methyl butanoate] + CCCCn1cc[n+](C)c1.COP(=O)([O-])OC: the activity coefficient by setting is: (358.15 K) 4.93 ± 0.34; (368.15 K) 5.04 ± 0.34; (378.15 K) 5.17 ± 0.35; (388.15 K) 5.39 ± 0.37.

Regarding `C1CCCCCC1` [cycloheptane] + CCCCn1cc[n+](C)c1.CS(=O)(=O)[O-], the activity coefficient was found to be 44.2 ± 3 (358.15 K), 43.3 ± 3 (368.15 K), 42.6 ± 2.9 (378.15 K) and 42.2 ± 2.9 (388.15 K).

Consider `COC(C)(C)C` [2-methoxy-2-methylpropane] + CCCCn1cc[n+](C)c1.COP(=O)([O-])OC, for which the activity coefficient came out at 7.17 ± 0.49 (358.15 K), 7.35 ± 0.5 (368.15 K), 7.48 ± 0.51 (378.15 K) and 7.66 ± 0.52 (388.15 K).

In the case of `CCCO` [propan-1-ol] + CCCCn1cc[n+](C)c1.COP(=O)([O-])OC, the activity coefficient is, setting by setting: (398.15 K) 0.197 ± 0.029; (408.15 K) 0.218 ± 0.029; (418.15 K) 0.239 ± 0.029; (428.15 K) 0.264 ± 0.03.

`Cc1ccccc1C` [1,2-dimethylbenzene] + CCCCn1cc[n+](C)c1.CS(=O)(=O)[O-]: the activity coefficient reads like this: (358.15 K) 7.64 ± 0.52; (368.15 K) 7.79 ± 0.53; (378.15 K) 7.99 ± 0.54; (388.15 K) 8.21 ± 0.56.

`c1ccncc1` [pyridine] + CCCCn1cc[n+](C)c1.COP(=O)([O-])OC: the activity coefficient was found to be 1.18 ± 0.08 (358.15 K), 1.23 ± 0.08 (368.15 K), 1.28 ± 0.08 (378.15 K) and 1.35 ± 0.09 (388.15 K).

For `CCCOCCC` [dipropyl ether] + CCCCn1cc[n+](C)c1.COP(=O)([O-])OC, the activity coefficient worked out at 13.9 ± 0.95 (358.15 K), 13.7 ± 0.94 (368.15 K), 13.6 ± 0.93 (378.15 K) and 13.4 ± 0.92 (388.15 K).

For `CC(C)OC(C)C` [diisopropyl ether] + CCCCn1cc[n+](C)c1.COP(=O)([O-])OC, the activity coefficient (358.15 K) was 14.4 ± 0.98, the activity coefficient (368.15 K) amounted to 14.3 ± 0.97, the activity coefficient (378.15 K) was 14.2 ± 0.97 and the activity coefficient (388.15 K) amounted to 14.1 ± 0.96.

Turning to `CCCCCCCC` [octane] + CCCCn1cc[n+](C)c1.[Cl-], the activity coefficient came to 331 ± 23 (358.15 K), 302 ± 21 (368.15 K), 268 ± 18 (378.15 K) and 258 ± 18 (388.15 K).

Turning to `C1CCCC1` [cyclopentane] + CCCCn1cc[n+](C)c1.[Cl-], the activity coefficient (358.15 K) was determined as 38.7 ± 2.6, the activity coefficient (368.15 K) came out at 36.2 ± 2.5, the activity coefficient (378.15 K) was determined as 33.5 ± 2.3 and the activity coefficient (388.15 K) is 31.8 ± 2.2.

As to `c1ccccc1` [benzene] + CCCCn1cc[n+](C)c1.[Cl-], the activity coefficient (358.15 K) stood at 4.51 ± 0.31, the activity coefficient (368.15 K) is 4.59 ± 0.31, the activity coefficient (378.15 K) came out at 4.72 ± 0.32 and the activity coefficient (388.15 K) was found to be 4.82 ± 0.33.
